Paper PMC11671793, “Design, Synthesis, and Evaluation of Novel (−)‐cis‐N‐Normetazocine Derivatives: In Vitro and Molecular Modeling Insights” (Chemical Biology & Drug Design, 2024)
Where two headings read alike, the source gives them in different places.

Columns and labels:
[1] = target: T1, MOR (mu opioid receptor) (Rattus norvegicus, UniProt P33535); assay: MOR radioligand binding assay with [3H]-DAMGO; details: for K i DOR/K i MOR / K i KOR/K i MOR: selectivity ratio
T1 construct: from tissue; host or cells: rat brain membranes
T1 sequence (P33535 whole entry): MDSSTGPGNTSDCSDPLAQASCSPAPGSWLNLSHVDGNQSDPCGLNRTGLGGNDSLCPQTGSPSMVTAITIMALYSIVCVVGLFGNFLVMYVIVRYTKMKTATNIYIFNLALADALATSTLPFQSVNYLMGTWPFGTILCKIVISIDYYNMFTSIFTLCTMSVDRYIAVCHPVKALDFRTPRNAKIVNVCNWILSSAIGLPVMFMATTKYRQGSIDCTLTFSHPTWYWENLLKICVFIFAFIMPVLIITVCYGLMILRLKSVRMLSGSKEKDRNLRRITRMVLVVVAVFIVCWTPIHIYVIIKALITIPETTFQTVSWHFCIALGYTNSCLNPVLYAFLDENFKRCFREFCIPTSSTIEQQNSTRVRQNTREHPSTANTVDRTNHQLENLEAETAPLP

[2] = target: T2, KOR (kappa opioid receptor) (Cavia porcellus, UniProt P41144); details: cited from earlier work
T2 construct: from tissue; host or cells: guinea pig brain membranes
T2 sequence (P41144 whole entry): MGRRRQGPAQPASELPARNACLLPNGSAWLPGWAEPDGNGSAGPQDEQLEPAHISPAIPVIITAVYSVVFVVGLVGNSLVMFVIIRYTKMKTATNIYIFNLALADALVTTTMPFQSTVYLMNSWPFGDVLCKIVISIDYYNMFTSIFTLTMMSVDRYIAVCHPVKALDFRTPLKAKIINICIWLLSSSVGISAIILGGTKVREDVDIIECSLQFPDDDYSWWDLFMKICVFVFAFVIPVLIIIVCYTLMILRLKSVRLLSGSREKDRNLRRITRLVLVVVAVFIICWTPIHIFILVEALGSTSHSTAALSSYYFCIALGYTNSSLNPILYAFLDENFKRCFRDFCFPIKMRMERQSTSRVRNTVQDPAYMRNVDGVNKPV

[3] = target: T1, MOR (mu opioid receptor); details: cited from earlier work
[4] = target: T3, DOR (delta opioid receptor) (Rattus norvegicus, UniProt P33533); details: cited from earlier work
T3 sequence (P33533 whole entry): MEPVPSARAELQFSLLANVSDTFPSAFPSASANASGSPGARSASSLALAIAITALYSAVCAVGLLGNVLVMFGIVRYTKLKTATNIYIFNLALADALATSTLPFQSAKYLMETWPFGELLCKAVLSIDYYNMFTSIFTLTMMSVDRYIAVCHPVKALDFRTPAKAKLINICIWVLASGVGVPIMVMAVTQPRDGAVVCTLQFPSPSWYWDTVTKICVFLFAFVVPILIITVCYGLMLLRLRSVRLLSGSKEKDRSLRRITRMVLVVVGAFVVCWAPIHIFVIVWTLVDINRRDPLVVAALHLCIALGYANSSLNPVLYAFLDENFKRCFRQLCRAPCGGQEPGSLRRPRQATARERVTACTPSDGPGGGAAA

[5] = target: T2, KOR (kappa opioid receptor); assay: KOR radioligand binding assay with [3H]-U69,593; set-up: species or system guinea pig
[6] = target: T3, DOR (delta opioid receptor); assay: DOR radioligand binding assay with [3H]-Delthorphin
[7] = target: KOR; set-up: method as in Pasquinucci et al. [2010]; details: Figure 1; ref Pasquinucci et al. [2010]; cited from earlier work
[8] = target: MOR; set-up: method as in Pasquinucci et al. [2010]; details: Figure 1; ref Pasquinucci et al. [2010]; cited from earlier work
[9] = target: DOR; set-up: method as in Pasquinucci et al. [2010]; details: Figure 1; ref Pasquinucci et al. [2010]; cited from earlier work
[10] = read-out: KOR Expected K i, experimental Ki as repeated in Table 2, previously synthesized compounds, ref Pasquinucci et al. ([2017]), Costanzo et al. ([2023])
[11] = read-out: MOR Expected K i, experimental Ki as repeated in Table 2, previously synthesized compounds, ref Pasquinucci et al. ([2017]), Costanzo et al. ([2023])
[12] = read-out: DOR Expected K i, experimental Ki as repeated in Table 2, previously synthesized compounds, ref Pasquinucci et al. ([2017]), Costanzo et al. ([2023])
[13] = K i (nM) ± SD KOR, [3H]-U69,593, mean ± SD of at least two experiments in duplicate
[14] = KOR Expected K i (nM), experimental Ki as repeated in Table 2

| SMILES | K i DOR/K i MOR [1] | K i KOR/K i MOR [1] | Ki [1] [nM] | Ki [5, 13] [nM] | Ki [6] [nM] | further results |
| --- | --- | --- | --- | --- | --- | --- |
| CCOC(=O)C(CCN1CCC2(C)c3cc(O)ccc3CC1C2C)c1ccccc1 (stereo not drawn) [Compound 1] | 40.70 | 12.00 |  |  |  | Ki ([2]; experimental Ki as repeated in Table 2, previously synthesized compounds, ref Pasquinucci et al. ([2017]), Costanzo et al. ([2023]), read-out: KOR Expected K i): 130 ± 15 nM; Ki ([2]; footnote b, ref Pasquinucci et al. ([2017]), read-out: K i (nM) ± SD KOR): 130 ± 15 nM; Ki ([3]; experimental Ki as repeated in Table 2, previously synthesized compounds, ref Pasquinucci et al. ([2017]), Costanzo et al. ([2023]), read-out: MOR Expected K i): 10.8 ± 2 nM; Ki ([3]; footnote b, ref Pasquinucci et al. ([2017]), read-out: K i (nM) ± SD MOR): 10.8 ± 2 nM; Ki ([4]; experimental Ki as repeated in Table 2, previously synthesized compounds, ref Pasquinucci et al. ([2017]), Costanzo et al. ([2023]), read-out: DOR Expected K i): 440 ± 22 nM; Ki ([4]; footnote b, ref Pasquinucci et al. ([2017]), read-out: K i (nM) ± SD DOR): 440 ± 22 nM |
| CC1C2Cc3ccc(O)cc3C1(C)CCN2CCC(C(=O)O)c1ccccc1 (stereo not drawn) [Compound 2] | 23.30 |  |  |  |  | Ki ([2]; read-out: K i (nM) ± SD KOR, footnote b, ref Pasquinucci et al. ([2017])): 3220 ± 60 nM; Ki [2, 10]: 3220 ± 60 nM; Ki ([3]; read-out: K i (nM) ± SD MOR, footnote b, ref Pasquinucci et al. ([2017])): 11.8 ± 2 nM; Ki [3, 11]: 11.8 ± 2 nM; Ki [4, 12]: 275 ± 11 nM; Ki ([4]; read-out: K i (nM) ± SD DOR, footnote b, ref Pasquinucci et al. ([2017])): 275 ± 11 nM |
| COC(=O)CCN1CC[C@@]2(C)c3cc(O)ccc3C[C@@H]1[C@@H]2C [Compound 3, Methyl 3‐[(2R,6R,11R)‐8‐hydroxy‐6,11‐dimethyl‐1,4,5, 6‐tetrahydro‐2,6‐methanobenzo[d]azocin‐3(2H]‐yl)propanoate] | 26.98 | 3.19 | 19 ± 3 | 60.7 ± 8 | 513 ± 30 | Ki [5, 14]: 60.7 ± 0.7 nM |
| COC(=O)CCCN1CC[C@@]2(C)c3cc(O)ccc3C[C@@H]1[C@@H]2C [Compound 4, Methyl 4‐((2R,6R,11R)‐8‐hydroxy‐6,11‐dimethyl‐1,4,5,6‐tetrahydro‐2,6‐ methanobenzo[d]azocin‐3(2H)‐yl)butanoate] | 3.21 | 1.04 | 67.8 ± 7 | 70.5 | 218 ± 20 | Ki [5, 14]: 70.5 ± 0.76 nM |
| C[C@H]1[C@H]2Cc3ccc(O)cc3[C@]1(C)CCN2CCC(=O)O [Compound 5, 3‐((2R,6R,11R)‐8‐Hydroxy‐6,11‐dimethyl‐1,4,5,6‐tetrahydro‐2,6‐methanobenzo[d]azocin‐3(2H)‐yl)propanoic acid] | 2.88 |  | 383 ± 21 | > 5000 | 1100 ± 54 |  |
| C[C@H]1[C@H]2Cc3ccc(O)cc3[C@]1(C)CCN2CCCC(=O)O [Compound 6, 4‐((2R,6R,11R)‐8‐Hydroxy‐6,11‐dimethyl‐1,4,5,6‐tetrahydro‐2,6‐methanobenzo[d]azocin‐3(2H)‐yl)butanoic acid] | 1.21 |  | 992 ± 55 | > 5000 | 1200 ± 64 |  |
| C[C@H]1[C@H]2Cc3ccc(O)cc3[C@]1(C)CCN2CCC(=O)NO [Compound 7, N‐Hydroxy‐3‐((2R,6R,11R)‐8‐hydroxy‐6,11‐dimethyl‐1,4,5,6‐tetrahydro‐2,6‐methanobenzo[d]azocin‐3(2H)‐yl)propanamide] | 10.89 |  | 30.8 ± 2 | > 5000 | 335 ± 19 |  |
| C[C@H]1[C@H]2Cc3ccc(O)cc3[C@]1(C)CCN2CCCC(=O)NO [Compound 8, N‐Hydroxy‐4‐((2R,6R,11R)‐8‐hydroxy‐6,11‐dimethyl‐1,4,5,6‐tetrahydro‐2,6‐methanobenzo[d]azocin‐3(2H)‐yl)butanamide] | 30.83 |  | 42.2 ± 3 | > 5000 | 1300 ± 80 |  |
| CC1C2Cc3ccc(O)cc3C1(C)CCN2CCC(=O)Nc1ccccc1 (stereo not drawn) [LP1] |  |  |  |  |  | Ki [7]: 110 nM; Ki [8]: 0.83 nM; Ki [9]: 29.1 nM |
| COC(CN1CCC2(C)c3cc(O)ccc3CC1C2C)c1ccccc1 (stereo not drawn) [LP2] | 6.11 | 14.10 |  |  |  | Ki ([2]; read-out: K i (nM) ± SD KOR, footnote c, ref Costanzo et al. ([2023])): 15.2 ± 0.8 nM; Ki [2, 10]: 15.2 ± 0.8 nM; Ki ([3]; read-out: K i (nM) ± SD MOR, footnote c, ref Costanzo et al. ([2023])): 1.08 ± 0.1 nM; Ki [3, 11]: 1.08 ± 0.1 nM; Ki [4, 12]: 6.61 ± 0.6 nM; Ki ([4]; read-out: K i (nM) ± SD DOR, footnote c, ref Costanzo et al. ([2023])): 6.61 ± 0.6 nM |
